According to patent publication US20090270373A1, “TREATMENT OF DOWN SYNDROM WITH BENZODIAZEPINE RECEPTOR ANTAGONISTS” (Cypress Biosciences, Inc., priority 2008, published 2009):

How the values were obtained:
Ts65Dn mice [1] = type: in vivo, mouse; settings: 4-week crossover, flumazenil or bretazenil 1.0 mg/kg i.p. for 2 weeks, bilobalide 5.0 mg/kg i.p. throughout
Experimental: (§1) A 4-week longitudinal crossover study is carried out following the method outlined by Fernandez et al., supra. Wild-type and Ts65Dn mice (3-4 months of age) are randomly assigned to groups receiving daily i.p. injections of saline or flumazenil (1.0 mg/kg), and are submitted to four weekly repetitions of object recognition testing, in which the animals are serially presented with four different object sets. At the 2-week midpoint of the experimental period, wild-type and Ts65Dn mice that have been receiving saline are randomly segregated into groups that either continue to receive daily saline injections or begin to receive daily injections of flumazenil. Conversely, wild-type and Ts65Dn mice that have been chronically administered flumazenil in the first 2 weeks of testing are switched onto a saline regimen. Alongside saline and flumazenil, bilobalide (i.p. 5.0 mg/kg) may be evaluated as a positive control. Bilobalide is a picrotoxin-like compound that may safely be administered for the whole 4-week experiment.
(§2) Flumazenil may also be tested for its effects on declarative memory in the novel object recognition test and in a modified spontaneous alternation task. Wild-type and Ts65Dn mice may be administered flumazenil (3 mg/kg in milk via voluntary oral feeding or 1 mg/kg i.p.). The wild-type and Ts65Dn mice are administered from 5 to 30 doses of milk or milk-flumazenil (or saline or flumazenil solution i.p.). The mice are then subjected to two repetitions of novel object recognition testing or three daily T-maze sessions at the tail end of the treatment regimen. […] Comparison of treated and untreated Ts65Dn mice will provide controls for any possible arm bias in the spontaneous alternation task.
as §1, with “bretazenil” for “flumazenil”, “bretazenil.” for “flumazenil.”, “bretazenil,” for “flumazenil,”
as §2, with “Bretazenil may” for “Flumazenil may”, “administered bretazenil” for “administered flumazenil”

Ts65Dn mice [2] = settings: cited from earlier work; for improvement in cognition: 4 week crossover study
Ts65Dn mice [3] = test: Long-term potentiation (LTP) in the dentate gyrus of Ts65Dn mice (paper Examples 1 and 2); type: in vivo, mouse; settings: about 1 month after cessation of drug treatment
Excerpt: Since the ability of animals to learn and remember is thought to be encoded at the synaptic level, and involves the ability of synapses to undergo long-term changes in synapse strength, long-term potentiation (LTP) in the dentate gyrus may be evaluated.

Down Syndrome patients = test: Cognition in Down Syndrome patients, double-blind cross-over (Example 3); type: in vivo, human; settings: 5 and 20 mg
Experimental: Fifteen adult or adolescent Down Syndrome patients experiencing at least some level of cognitive impairment participate in a double-blind, cross-over comparison of […]. The drugs administered are flumazenil (5 and 20 mg), bretazenil (5 and 20 mg) or placebo. Subjects are randomly assigned to treatments according to a Williams Square design (Higgitt, supra (citing Williams, “Experimental designs balanced for the estimation of residual effects of treatments, Aust. J. Sci. Res. 2:149-168 (1949))). Each subject receives a different sequence of four treatments balanced for carry-over effects and separated by at least 1 week of wash-out period. […]
Psychophysiological indices to be measured include: EEG, skin conductance, finger tremor, critical flicker fusion threshold, blood pressure and pulse rate, key tapping rate, and reaction time. […]
EEG and evoked responses: These are recorded during the same EEG recording procedure. […] In addition, the four values are summed and each is expressed as a percentage of the total.
The averaged evoked responses are obtained from the 500 ms epoch of the EEG following each of the 32 click stimuli. […] The latency at each peak and peak-to-peak amplitudes are computed and recorded automatically. […]
Skin conductance, blood pressure and pulse rate can be measured by the method of Higgitt et al., supra. […]

WT and Ts65Dn mice = test: Open-field locomotor assay (LMA), 30 min session; type: in vivo, mouse
Experimental: (§3) Following baseline determinations and group assignments, WT and Ts65Dn mice received intraperitoneal (i.p.) injections once/day (08:00) for the two-week duration of the drug treatment regimen (FIG. 1). Drugs were dissolved in physiological saline. Two drops of Tween 80 were used to facilitate solution formation for flumazenil. Picrotoxin was initially made up at 50× concentration in 20% ethanol and then diluted down to a […] solution with 0.4% ETOH in saline. Doses of drugs were based on previous behavioral research in mice (1 mg/kg for PTX and 10 mg/kg for flumazenil). Injections were given in a volume of 10 ml/kg. A vehicle control was run along side the treatment groups (0.4% ETOH in saline).
(§4) FIG. 1 graphically depicts the protocol. After habituation to the animal facility, mice were tested for baseline behaviors in the open-field locomotor assay (LMA)(30 min session) and the novel object recognition assay. Primary experimental groups were divided by genotype (Ts65Dn mice and wild-type control littermates). These two groups were further divided into drug treatments (vehicle, PTX and flumazenil) with a targeted n-size of 8 mice/group (24 WT and 24 Ts65Dn mice total). The group assignments were made in a semi-random process due to constraints in animal availability (staggered shipping) and choice of initial treatment groups (e-mail documentation between Bilsky laboratory and Cypress Bioscience on file). Daily morning injections began on Day 1 and went through the morning of Day 14. On Days 7/8 and 14/15 (13:00) mice were tested in the behavioral assay. Mice were kept for an additional two weeks and re-tested on Days 21/22 and 28/29 to assess the duration of the drug treatment effect.
General levels of arousal, locomotor activity and anxiety were assessed using an automated open-field activity monitoring system (Coulbourn Instruments with TruScan software). The open field test that were run were fully automated assays that quantified many different aspects and patterns of movement, including total distance traveled, time spent moving, rearing, and various stereotypic patterns of activity. The software calculates the time spent in the middle portions of the open field versus the outer zones alongside the outside walls. These variables can be used as one measure of general anxiety levels.
Mice were placed into an open field (26 cm×26 cm) in a brightly lit room. Two sensor rings (x-y plane and a vertical z plane) generate an array of infrared beams that surround the chamber. The pattern of beam breaks was recorded and the data fed into a personal computer. The TruScan software interpreted the beam breaks to calculate the movement variables and patterns of activity, with a temporal resolution of 100 msec. A 30 minutes session was used for assessment of the mice on Day 0 (Baseline) and then on Days 1, 7, 14, 21 and 28. Data were exported into an Excel spreadsheet, graphed and analyzed using parametric and non-parametric statistics.

WT mice = test: Novel object recognition assay (Discrimination Index) in WT mice; type: in vivo, mouse
Experimental: as §3, §4
(§5) The novel object recognition task is based on the innate tendency of rodents to differentially explore novel objects over familiar ones. The task is well validated for evaluating rodent memory and the effects of drug treatments on learning/memory performance.
(§6) Mice were trained and tested once per week, each experimental session separated by a one-week interval. Mice were submitted to daily handling sessions, and given an opportunity to habituate to an open field arena (48 cm×48 cm wide×25 cm), where they were exposed to two different objects (complex protocol), during a 5-minute training session. Objects were made from various non-porous materials that differ in shape and color. Mice were unable to climb onto the objects and the objects were generally consistent in height and volume, and were roughly symmetrical on a horizontal plane. Objects were positioned in two corners of the apparatus. To control for odor cues, the open field arena and the objects are thoroughly cleaned with 90% ethanol, dried, and ventilated for a few minutes between mice.
(§7) A 5-minute testing session was conducted 24 h after training. Here, the mice were presented with the object they had explored the previous day, and a new item (the objects being alternatively positioned in one corner or another in a balanced fashion within a given week, and from one week to another). […]

Ts65Dn mice [4] = test: Novel object recognition assay (Discrimination Index) in Ts65Dn mice, model of Down syndrome; type: in vivo, mouse
Experimental: as §3, §4, §5, §6, §7

[5] = Week 1 of drug therapy, PTX 1 mg/kg, flumazenil 10 mg/kg i.p.

Compound | object recognition performance (Ts65Dn mice [1]) | improvement in cognition (Ts65Dn mice [2]) | LTP in the dentate gyrus (Ts65Dn mice [3]) | indicators of cognition as compared to placebo (Down Syndrome patients) | LMA center distance traveled (WT and Ts65Dn mice; 7 and 14 days post dosing) | LMA margin vs. center time (WT and Ts65Dn mice; Day 1) | LMA margin vs. center time (WT and Ts65Dn mice; Day 7) | LMA margin vs. center time (WT and Ts65Dn mice; Day 21 (washout period)) | LMA margin vs. center time (WT and Ts65Dn mice; Day 28 (washout period)) | LMA vertical rearing (WT and Ts65Dn mice; WT and Ts65Dn mice, PTX during drug administration phases, flumazenil over the 4 week testing regimen) | LMA marginal distance traveled (WT and Ts65Dn mice; WT and Ts65Dn mice, across sessions, PTX 1 mg/kg, flumazenil 10 mg/kg i.p.) | LMA total distance traveled (WT and Ts65Dn mice; dosing phase (Days 1, 7 and 14), PTX 1 mg/kg i.p.) | LMA center distance traveled (WT and Ts65Dn mice; drug administration phase (Days 1, 7 and 14), PTX 1 mg/kg, flumazenil 10 mg/kg i.p.) | time after last dosing until LMA effects were gone (WT and Ts65Dn mice; total distance traveled, PTX 1 mg/kg i.p.) | Discrimination Index (DI) (WT mice; [5]) | Discrimination Index (DI) (WT mice; Week 2 of drug therapy, versus vehicle) | Discrimination Index (DI) (WT mice; Week 4 (2 weeks post dosing)) | Discrimination Index (DI) (Ts65Dn mice [4]; [5]) | Discrimination Index (DI) (Ts65Dn mice [4]; Week 2 of drug therapy) | rescue of cognition (Ts65Dn mice [2]; Ts65Dn mice, two-week dosing regimen of 1.0 mg/kg i.p.)
CC(C)(C)[C@]1(O)CC2OC(=O)CC23C(=O)OC2OC(=O)[C@H](O)C231 (stereo partly shown) [bilobalide] | normalized object recognition performance | statistically significant improvement | – | – | – | – | – | – | – | – | – | – | – | – | – | – | – | – | – | –
CC(C)(C)OC(=O)c1ncn2c1[C@@H]1CCCN1C(=O)c1c(Br)cccc1-2 [bretazenil, tert-butyl-(S)-8-bromo-11,12,13,13a-tetrahydro-9-oxo-9H-imidazo[1,5-a]pyrrolo[2,1-c][1,4]benzodiazepine-1-carboxylate] | normalized object recognition performance | – | Normalized LTP | improvement in one or more indicators of cognition | – | – | – | – | – | – | – | – | – | – | – | – | – | – | – | –
picrotoxin [PTX] | – | statistically significant improvement | – | – | mild rebound effect | trend for decreased center time | small decrease in time spent in the center zone | increased time spent in center | trend for increased time spent in the center zone | dropping significantly | decreased distance traveled | modest decrease | decreased levels of activity | ≤ 7 days | ~30 | no differences | positive DI | positive effects | positive effects | clear benefit
